# Test results reported in patent publication US12383539B2 (Cavion, Inc., priority 2018, dated 2025).
# Tests used:
# Type in all cases: in vivo, human
# [1] = system: patients with essential tremor; experiment: T-CALM: TETRAS total score
# Experimental: The Total TETRAS score was defined as the sum of the TETRAS performance subscale total score and the TETRAS ADL subscale score. TETRAS TOTAL score combines both patient reported outcome and objective measurement of tremor amplitude in a single score. Analyses of the TETRAS-ADL was conducted using the same type of ANCOVA model as described for the TETRAS-PS, using two-sided tests at the alpha=0.05 level of significance (FIG. 3 and Table 3).
# [2] = system: patients with essential tremor; experiment: T-CALM: Clinical Global Impression of Improvement (CGI-I)
# Excerpt: The Clinical Global Impressions Scale (CGI) was developed for use in NIMH-sponsored clinical trials to provide a brief, stand-alone assessment of the clinician's view of a patient's global functioning before and after initiating a study medication (Guy (ed.), ECDEU Assessment Manual for Psychopharmacology. Rockville, MD: US Department of Health, Education, and Welfare Public Health Service Alcohol, Drug Abuse, and Mental Health Administration; 1976). The CGI is a summary measure that takes into account all available information, including knowledge of the patient's history, psychosocial circumstances, symptoms, behavior, and the impact of the symptoms on the patient's ability to function. The CGI has two forms—the CGI-Severity, which rates illness severity at baseline, and the CGI-Improvement, which rates change from baseline.
# The CGI-I consists of a single 7-point rating of total improvement or change from baseline CGI-S, regardless of whether or not the change is due entirely to drug treatment.
# Treatment success as measured by CGI-I was summarized using descriptive statistics.
# The Clinical Global Impressions Scale (CGI) generates a clinician's perception of a patient's functioning prior to and after study medication (see, e.g., Guy, Assessment Manual for Psychopharmacology. Rockville, MD: Department of Health, Education, and Welfare Public Health Service Alcohol, Drug Abuse, and Mental Health Administration, 1976). The CGI overall score considers patient history, psychosocial situations, symptoms and behavior with respect to the ability to function. The CGI-Improvement (CGI-I) will involve a single 7-point rating of total improvement or change from baseline CGI-Severity (CGI-S).
# [3] = system: patients with essential tremor; experiment: T-CALM: Patient Global Impression of Change (PGIC); settings: Day 15
# Excerpt: Treatment success as measured by PGIC was summarized using descriptive statistics.
# The Patient Global Impression of Change (PGIC) will quantify a patient's impression of improvement or decline over time with respect to ET treatment (see, e.g., Guy, Assessment Manual for Psychopharmacology. Rockville, MD: Department of Health, Education, and Welfare Public Health Service Alcohol, Drug Abuse, and Mental Health Administration, 1976). The patient will use the PGIC scale to assess current health status versus initiation of treatment and calculate the difference.
smiles,measurement,setting,value
CC(C)c1ccc(CC(=O)N[C@H](C)c2ccc(OCC(F)(F)F)cn2)cc1 [CX-8998],"responders: improvement of at least 5 points by TETRAS Total score, %",[1]; Day 15,(56.4%)
same,"responders: improvement of at least 5 points by TETRAS Total score, number","[1]; Day 15, N 39",22
same,"TETRAS Total change from baseline 0 change: subjects, number (%)","[1]; Day 15, N = 39",1 (2.6%)
same,"TETRAS Total change from baseline >0 to 1 point improvement: subjects, number (%)","[1]; Day 15, N = 39",2 (5.1%)
same,"TETRAS Total change from baseline >0 to 1 point worsening: subjects, number (%)","[1]; Day 15, N = 39",2 (5.1%)
same,"TETRAS Total change from baseline >1 to 2.5 point improvement: subjects, number (%)","[1]; Day 15, N = 39",2 (5.1%)
same,"TETRAS Total change from baseline >1 to 2.5 point worsening: subjects, number (%)","[1]; Day 15, N = 39",1 (2.6%)
same,"TETRAS Total change from baseline >2.5 to 5 point improvement: subjects, number (%)","[1]; Day 15, N = 39",7 (17.9%)
same,"TETRAS Total change from baseline >2.5 to 5 point worsening: subjects, number (%)","[1]; Day 15, N = 39",4 (10.3%)
same,"TETRAS Total change from baseline >5 to 10 point improvement: subjects, number (%)","[1]; Day 15, N = 39",6 (15.4%)
same,"TETRAS Total change from baseline >5 to 10 point worsening: subjects, number (%)","[1]; Day 15, N = 39",0
same,"TETRAS Total change from baseline >10 to 20 point improvement: subjects, number (%)","[1]; Day 15, N = 39",12 (30.8%)
same,"TETRAS Total change from baseline >20 point improvement: subjects, number (%)","[1]; Day 15, N = 39",2 (5.1%)
same,"TETRAS Total change from baseline >point worsening: subjects, number (%)","[1]; Day 15, N = 39",0
same,"total TETRAS score with TETRAS-PS rated by independent video raters, vs placebo",[1]; Day 15 and Day 28,trended toward improvement for the CX-8998 group but was not statistically significant
same,"responders: improvement of at least 5 points by TETRAS Total score, %",[1]; Day 28,(56.8%)
same,"responders: improvement of at least 5 points by TETRAS Total score, number","[1]; Day 28, N 37",21
same,"TETRAS Total change from baseline 0 change: subjects, number (%)","[1]; Day 28, N = 37",0
same,"TETRAS Total change from baseline >0 to 1 point improvement: subjects, number (%)","[1]; Day 28, N = 37",2 (5.4%)
same,"TETRAS Total change from baseline >0 to 1 point worsening: subjects, number (%)","[1]; Day 28, N = 37",4 (10.8%)
same,"TETRAS Total change from baseline >1 to 2.5 point improvement: subjects, number (%)","[1]; Day 28, N = 37",2 (5.4%)
same,"TETRAS Total change from baseline >1 to 2.5 point worsening: subjects, number (%)","[1]; Day 28, N = 37",2 (5.4%)
same,"TETRAS Total change from baseline >2.5 to 5 point improvement: subjects, number (%)","[1]; Day 28, N = 37",5 (13.5%)
same,"TETRAS Total change from baseline >2.5 to 5 point worsening: subjects, number (%)","[1]; Day 28, N = 37",1 (2.7%)
same,"TETRAS Total change from baseline >5 to 10 point improvement: subjects, number (%)","[1]; Day 28, N = 37",7 (18.9%)
same,"TETRAS Total change from baseline >5 to 10 point worsening: subjects, number (%)","[1]; Day 28, N = 37",0
same,"TETRAS Total change from baseline >10 point worsening: subjects, number (%)","[1]; Day 28, N = 37",0
same,"TETRAS Total change from baseline >10 to 20 point improvement: subjects, number (%)","[1]; Day 28, N = 37",8 (21.6%)
same,"TETRAS Total change from baseline >20 point improvement: subjects, number (%)","[1]; Day 28, N = 37",5 (13.5%)
same,"CGI-I score 0-no change: subjects, number (%)",[2]; Day 15,14 (36%)
same,"CGI-I score 1-minimally improved: subjects, number (%)",[2]; Day 15,19 (49%)
same,"CGI-I score 2-much improved: subjects, number (%)",[2]; Day 15,6 (15%)
same,"CGI-I score 3-very much improved: subjects, number (%)",[2]; Day 15,0
same,"CGI-I score −1-minimally worse: subjects, number (%)",[2]; Day 15,0
same,"CGI-I score −2-much worse: subjects, number (%)",[2]; Day 15,0
same,"CGI-I score −3-very much worse: subjects, number (%)",[2]; Day 15,0
same,"responders: improvement by CGI-I, %",[2]; Day 15,(64.1%)
same,"CGI-I category 0 No change, number (%) of patients","[2]; Day 15, N = 39",14 (36%)
same,"CGI-I category 1 Minimally improved, number (%) of patients","[2]; Day 15, N = 39",19 (49%)
same,"CGI-I category 2 Much improved, number (%) of patients","[2]; Day 15, N = 39",6 (15%)
same,"CGI-I category 3 Very much improved, number (%) of patients","[2]; Day 15, N = 39",0
same,"CGI-I category −1 Minimally worse, number (%) of patients","[2]; Day 15, N = 39",0
same,"CGI-I category −2 Much worse, number (%) of patients","[2]; Day 15, N = 39",0
same,"CGI-I category −3 Very much worse, number (%) of patients","[2]; Day 15, N = 39",0
same,"CGI-I score 0-no change: subjects, number (%)",[2]; Day 28,13 (33%)
same,"CGI-I score 1-minimally improved: subjects, number (%)",[2]; Day 28,15 (38%)
same,"CGI-I score 2-much improved: subjects, number (%)",[2]; Day 28,9 (23%)
same,"CGI-I score 3-very much improved: subjects, number (%)",[2]; Day 28,0
same,"CGI-I score (rescaled −3 to 3), Mean (SD)",[2]; Day 28,1 (0.8)
same,"CGI-I score (rescaled −3 to 3), Median (minimum, maximum)",[2]; Day 28,"1 (0, 2)"
same,"CGI-I score −1-minimally worse: subjects, number (%)",[2]; Day 28,0
same,"CGI-I score −2-much worse: subjects, number (%)",[2]; Day 28,0
same,"CGI-I score −3-very much worse: subjects, number (%)",[2]; Day 28,0
same,"responders: improvement by CGI-I, %",[2]; Day 28,(64.9%)
same,"CGI-I: No Change, number of subjects","[2]; Day 28, total 37",13
same,"CGI-I: Worsened, number of subjects","[2]; Day 28, total 37",0
same,"CGI-I score, LS mean (SE)","[2]; Day 28, ANCOVA",1.0 (0.13)
same,"CGI-I score, LS mean difference from placebo (95% CI)","[2]; Day 28, ANCOVA","0.6 (0.3, 0.9)"
same,"CGI-I category 0 No change, number (%) of patients","[2]; Day 28, N = 39",13 (33%)
same,"CGI-I category 1 Minimally improved, number (%) of patients","[2]; Day 28, N = 39",15 (38%)
same,"CGI-I category 2 Much improved, number (%) of patients","[2]; Day 28, N = 39",9 (23%)
same,"CGI-I category 3 Very much improved, number (%) of patients","[2]; Day 28, N = 39",0
same,"CGI-I category −1 Minimally worse, number (%) of patients","[2]; Day 28, N = 39",0
same,"CGI-I category −2 Much worse, number (%) of patients","[2]; Day 28, N = 39",0
same,"CGI-I category −3 Very much worse, number (%) of patients","[2]; Day 28, N = 39",0
same,"PGIC score 0-no change: subjects, number (%)",[3],11 (28%)
same,"PGIC score 1-minimally improved: subjects, number (%)",[3],17 (44%)
same,"PGIC score 2-much improved: subjects, number (%)",[3],8 (21%)
same,"PGIC score 3-very much improved: subjects, number (%)",[3],1 (3%)
same,"PGIC score (rescaled −3 to 3), Mean (SD)",[3],1 (1.0)
same,"PGIC score (rescaled −3 to 3), Median (minimum, maximum)",[3],"1 (−2, 3)"
same,"PGIC score −1-minimally worse: subjects, number (%)",[3],1 (3%)
same,"PGIC score −2-much worse: subjects, number (%)",[3],1 (3%)
